This passage reports IC50 results from patent US9630963B2, “Quinolone derivatives as fibroblast growth factor inhibitors” (Principia Biopharma, Inc., priority 2013, dated 2017).

SMILES strings stand for the structures.

The subject of one test is SNU-16 cells. The experiment in a line: Inhibition of FGFR2-dependent cell growth (Cell-titer Glo). The test is classed as cell-based. The conditions noted are these: Homo sapiens, SNU16 cells, 72 hrs incubation, cell viability by Cell-titer Glo. The method, then:
The cell-based effects of FGFR inhibitors were determined by measuring inhibition of FGFR-dependent cell line growth. […] Percent inhibition of cell growth was calculated as a percentage of untreated cell viability. The percent inhibition was plotted as a function of log compound concentration. The IC50 was then calculated for each compound using Prism software from GraphPad.

The next test concerns the target human recombinant FGFR1 (Homo sapiens, UniProt P11362). The test can be described thus: FGFR family enzymatic activity assay (Caliper-based kinase assay), FGFR1. It is filed as biochemical. The conditions noted are these: FGFR1 0.5 nM, ATP 100 μM, peptide substrate 1 μM, room temperature 3 h. The source says:
A Caliper-based kinase assay (Caliper Life Sciences, Hopkinton, Mass.) was used to measure inhibition of FGFR family (FGFR1, FGFR2, FGFR3, FGFR4) kinase activity of a compound of Formula (I′) or (I). […] This value is presented as the IC50.

human recombinant FGFR1, sequence (P11362 22-822): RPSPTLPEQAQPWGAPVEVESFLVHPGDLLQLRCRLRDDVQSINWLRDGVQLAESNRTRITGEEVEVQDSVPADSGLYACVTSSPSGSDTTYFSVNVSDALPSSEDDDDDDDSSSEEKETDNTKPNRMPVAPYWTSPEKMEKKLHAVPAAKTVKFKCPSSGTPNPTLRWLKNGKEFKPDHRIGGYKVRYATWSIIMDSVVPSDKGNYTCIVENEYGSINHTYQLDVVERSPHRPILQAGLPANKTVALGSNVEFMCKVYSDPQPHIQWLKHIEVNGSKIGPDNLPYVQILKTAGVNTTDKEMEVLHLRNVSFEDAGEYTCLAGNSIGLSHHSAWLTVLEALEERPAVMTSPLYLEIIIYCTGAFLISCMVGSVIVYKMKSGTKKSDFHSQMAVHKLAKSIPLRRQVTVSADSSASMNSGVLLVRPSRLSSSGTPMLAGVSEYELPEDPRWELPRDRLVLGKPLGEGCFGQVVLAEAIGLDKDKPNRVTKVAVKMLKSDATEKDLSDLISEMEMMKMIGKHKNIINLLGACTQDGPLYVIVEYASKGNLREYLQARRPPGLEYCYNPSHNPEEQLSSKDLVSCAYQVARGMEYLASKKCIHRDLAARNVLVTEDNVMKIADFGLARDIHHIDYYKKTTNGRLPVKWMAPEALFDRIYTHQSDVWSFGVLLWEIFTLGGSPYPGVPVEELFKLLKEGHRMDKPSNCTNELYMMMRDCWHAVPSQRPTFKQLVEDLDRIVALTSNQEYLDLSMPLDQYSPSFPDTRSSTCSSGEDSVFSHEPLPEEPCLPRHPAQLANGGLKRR

On to `C=CC(=O)Nc1cnc(CCn2c(=O)c(-c3cc(OC)cc(OC)c3Cl)cc3cnc(NCCN4CCOCC4)nc32)cn1` [Example 47, N-(5-(2-(6-(2-chloro-3,5-dimethoxyphenyl)-2-((2-morpholinoethyl)amino)-7-oxopyrido[2,3-d]pyrimidin-8(7H)-yl)ethyl)pyrazin-2-yl)acrylamide], for which the IC50 in the test on SNU-16 cells came to 82.4 nM; at human recombinant FGFR1, 3 nM. On the same counts, the results for `C=CC(=O)Nc1ccc(CCn2c(=O)c(-c3cc(OC)cc(OC)c3Cl)cc3cnc(NCCCCN(CC)CC)nc32)cn1` [Example 32, N-(5-(2-(6-(2-chloro-3,5-dimethoxyphenyl)-2-((4-(diethylamino)butyl)amino)-7-oxopyrido[2,3-d]pyrimidin-8 (7H)-yl)ethyl)pyridin-2-yl)acrylamide] are 6.7 nM and 1.2 nM. For `C#CCNc1ncc2cc(-c3cc(OC)cc(OC)c3Cl)c(=O)n(CCc3ccc(NC(=O)C=C)cn3)c2n1` [Example 59, N-(6-(2-(6-(2-chloro-3,5-dimethoxyphenyl)-7-oxo-2-(prop-2-yn-1-ylamino)pyrido-[2,3-d]pyrimidin-8(7H)-yl)ethyl)pyridin-3-yl)acrylamide], in that order: 0.6 nM and 0.5 nM. Take `C=CC(=O)Nc1ccc(CCn2c(=O)c(-c3cc(OC)cc(OC)c3Cl)cc3cnc(NCCN4CCOCC4)nc32)cc1F` [Example 54, N-(4-(2-(6-(2-chloro-3,5-dimethoxyphenyl)-2-((2-morpholinoethyl)amino)-7-oxopyrido[2,3-d]pyrimidin-8(7H)-yl)ethyl)-2-fluorophenyl)acrylamide]: the IC50 was determined as 33.3 nM in the test with SNU-16 cells and 11.7 nM at human recombinant FGFR1. Consider `C=CC(=O)Nc1ccc(CCn2c(=O)c(-c3cc(OC)cc(OC)c3Cl)cc3cnc(NCCN4CCS(=O)(=O)CC4)nc32)cc1` [Example 74, N-(4-(2-(6-(2-chloro-3,5-dimethoxyphenyl)-2-((2-(1,1-dioxidothiomorpholino)-ethyl)amino)-7-oxopyrido[2,3-d]pyrimidin-8(7H)-yl)ethyl)phenyl)acrylamide], for which the IC50 in the test on SNU-16 cells is 13.3 nM; at human recombinant FGFR1 it was 2.2 nM. Take `C=CC(=O)Nc1ccc(CCn2c(=O)c(-c3c(Cl)c(OC)cc(OC)c3Cl)cc3cnc(NC(C)(CO)CO)nc32)cc1` [Example 91, N-(4-(2-(6-(2,6-dichloro-3,5-dimethoxyphenyl)-2-((1,3-dihydroxy-2-methylpropan-2-yl)amino)-7-oxopyrido[2,3-d]pyrimidin-8(7H)-yl)ethyl)phenyl)acrylamide]: the results for the half-maximal inhibitory concentration (IC50) in the test on SNU-16 cells and on human recombinant FGFR1 were 2.9 nM and 0.6 nM, respectively.

Turning to `C=CC(=O)Nc1ccc(CCn2c(=O)c(-c3cc(OC)cc(OC)c3Cl)cc3cnc(NCCN4C[C@@H](C)N[C@@H](C)C4)nc32)cc1` [Example 85, N-(4-(2-(6-(2-chloro-3,5-dimethoxyphenyl)-2-((2-((3S,5R)-3,5-dimethylpiperazin-1-yl)ethyl)amino)-7-oxopyrido[2,3-d]pyrimidin-8(7H)-yl)ethyl)phenyl)acrylamide], the IC50 at human recombinant FGFR1 stood at 1.2 nM. Take `C=CC(=O)Nc1ccc(CCn2c(=O)c(-c3c(Cl)c(OC)cc(OC)c3Cl)cc3cnc(NC(CC)(CO)CO)nc32)nc1` [Example 100, N-(6-(2-(6-(2,6-dichloro-3,5-dimethoxyphenyl)-2-((1-hydroxy-2-(hydroxymethyl)-butan-2-yl)amino)-7-oxopyrido[2,3-d]pyrimidin-8(7H)-yl)ethyl)pyridin-3-yl)acrylamide]: in the test with SNU-16 cells, the concentration for half-maximal inhibition (IC50) was 26.2 nM. For the compound `C=CC(=O)Nc1cccc(CCn2c(=O)c(-c3cc(OC)cc(OC)c3F)cc3cnc(NCCCCN(CC)CC)nc32)c1` [Example 42, N-(3-(2-(6-(2-fluoro-3,5-dimethoxyphenyl)-2-(4-diethylaminobutylamino)-7-oxopyrido[2,3-d]pyrimidin-8(7H)-yl)ethyl)phenyl)acrylamide], the 50% inhibitory concentration (IC50) on human recombinant FGFR1 amounted to 1.8 nM. Same read-out and setting: for `C=CC(=O)Nc1ccc(CCn2c(=O)c(-c3c(Cl)cccc3Cl)cc3cnc(NC)nc32)cc1` [Example 106, N-(4-(2-(6-(2,6-dichlorophenyl)-2-(methylamino)-7-oxopyrido[2,3-d]pyrimidin-8(7H)-yl)ethyl)phenyl)acrylamide] the value was 29.6 nM; for `C=CC(=O)Nc1ccc(CCn2c(=O)c(-c3cc(OC)cc(OC)c3Cl)cc3cnc(NC(C)(CO)CO)nc32)cc1` [Example 95, N-(4-(2-(6-(2-chloro-3,5-dimethoxyphenyl)-2-((1,3-dihydroxy-2-methylpropan-2-yl)amino)-7-oxopyrido[2,3-d]pyrimidin-8(7H)-yl)ethyl)phenyl)acrylamide], 6.2 nM; for `C=CC(=O)Nc1cn(CCn2c(=O)c(-c3cc(OC)cc(OC)c3Cl)cc3cnc(NC)nc32)cn1` [Example 48, N-(1-(2-(6-(2-chloro-3,5-dimethoxyphenyl)-2-(methylamino)-7-oxopyrido[2,3-d]-pyrimidin-8(7H)-yl)ethyl)-1H-imidazol-4-yl)acrylamide], 48 nM. For `C=CC(=O)Nc1ccc(CCn2c(=O)c(-c3cc(OC)cc(OC)c3Cl)cc3cnc(NCCN4CCC(F)(F)CC4)nc32)cc1` [Example 111, N-(4-(2-(6-(2-chloro-3,5-dimethoxyphenyl)-2-((2-(4,4-difluoropiperidin-1-yl)-ethyl)amino)-7-oxopyrido[2,3-d]pyrimidin-8(7H)-yl)ethyl)phenyl)acrylamide], at human recombinant FGFR1, the IC50 was 3.4 nM. Still for that read-out and setting: the value for `C=CC(=O)Nc1ccc(CCn2c(=O)c(-c3cc(OC)cc(OC)c3Cl)cc3cnc(Nc4ccccn4)nc32)nc1` [Example 108, N-(6-(2-(6-(2-chloro-3,5-dimethoxyphenyl)-7-oxo-2-(pyridin-2-ylamino)pyrido[2,3-d]pyrimidin-8(7H)-yl)ethyl)pyridin-3-yl)acrylamide] was 8.2 nM.

Turning to `C=CC(=O)Nc1ccc(CCn2c(=O)c(-c3cc(OC)cc(OC)c3Cl)cc3cnc(NCCN(CC)CC)nc32)cn1` [Example 29, N-(5-(2-(6-(2-chloro-3,5-dimethoxyphenyl)-2-((2-(diethylamino)ethyl)amino)-7-oxopyrido[2,3-d]pyrimidin-8(7H)-yl)ethyl)pyridin-2-yl)acrylamide], the IC50 at human recombinant FGFR1 worked out at 49.3 nM. On the same count and under the same terms, the value for `C=CC(=O)Nc1ccc(CCn2c(=O)c(-c3cc(OC)cc(OC)c3Cl)cc3cnc(NCC(C)(C)N4CCOCC4)nc32)cc1` [Example 110, N-(4-(2-(6-(2-chloro-3,5-dimethoxyphenyl)-2-((2-methyl-2-morpholinopropyl)-amino)-7-oxopyrido[2,3-d]pyrimidin-8(7H)-yl)ethyl)phenyl)acrylamide] was 1.9 nM; that for `C=CC(=O)Nc1ccc(CCn2c(=O)c(-c3c(Cl)cccc3Cl)cc3cnc(NC)nc32)nc1` [Example 107, N-(6-(2-(6-(2,6-dichlorophenyl)-2-(methylamino)-7-oxopyrido[2,3-d]pyrimidin-8(7H)-yl)ethyl)pyridin-3-yl)acrylamide] was 12.5 nM. The same measure, in the same setting: the value for `C=CC(=O)Nc1ccc(CCn2c(=O)c(-c3cc(OC)cc(OC)c3Cl)cc3cnc(NCC4(O)CCN(C)CC4)nc32)cc1` [Example 96, N-(4-(2-(6-(2-chloro-3,5-dimethoxyphenyl)-2-(((4-hydroxy-1-methylpiperidin-4-yl)methyl)-amino)-7-oxopyrido[2,3-d]pyrimidin-8(7H)-yl)ethyl)phenyl)acrylamide] was 9.8 nM.

One may read the IC50 as the concentration at which inhibition is half-maximal.
